We go through five compounds from ChEMBL document CHEMBL4725228, “An aza-nucleoside, fragment-like inhibitor of the DNA repair enzyme alkyladenine glycosylase (AAG)” (Bioorg Med Chem, 2020).

This assay deals with DNA-3-methyladenine glycosylase (Homo sapiens, UniProt P29372). The assay is described as follows: Inhibition of human AAG using HXO2/Loop01 oligonucleotide as substrate incubated for 2 hrs by colorimetric based microplate assay.

Calls of active or inactive are those of the source. The calls are words filed in the database; no cut-off is given here.

Chain of DNA-3-methyladenine glycosylase (P29372 whole entry): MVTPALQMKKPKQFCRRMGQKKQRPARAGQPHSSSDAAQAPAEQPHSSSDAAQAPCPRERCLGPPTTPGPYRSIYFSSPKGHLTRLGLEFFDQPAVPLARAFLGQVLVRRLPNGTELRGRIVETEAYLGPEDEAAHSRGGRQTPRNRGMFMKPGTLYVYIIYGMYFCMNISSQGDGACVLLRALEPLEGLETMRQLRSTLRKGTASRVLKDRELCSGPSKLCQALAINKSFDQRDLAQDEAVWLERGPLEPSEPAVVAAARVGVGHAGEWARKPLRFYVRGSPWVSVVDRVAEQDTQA

In the case of `OC[C@H]1CN(Cc2ncc[nH]2)C[C@@H]1O`, the inhibition entry was “Active”.

`OC[C@H]1CN(Cc2cccnc2)C[C@@H]1O`: the inhibition result was “Active”.

`OC[C@H]1CN(Cc2c[nH]cn2)C[C@@H]1O` had an IC50 of 157 µM.

`OC[C@H]1CN(Cc2ccncc2)C[C@@H]1O`: the inhibition entry is “Active”.

Turning to `OC[C@H]1CN(Cc2ccccn2)C[C@@H]1O`, the inhibition entry is “Active”.
